Source: patent US20250115943A1, “SYSTEM AND METHOD FOR ANTIMICROBIAL SUSCEPTIBILITY TESTING” (priority 2023, published 2025)
Values after ≈ are worked out from the molar mass of the structure shown. Where two headings read alike, the source gives them in different places.

Columns and labels:
S. aureus ATCC 29213 [1] = details: CLSI M100-Ed34E; cited from earlier work
E. coli ATCC 25922 [2] = test: CytoSPAR BLAST antibiotic susceptibility test; assay type: cell-based; details: for MIC: Escherichia coli; for S, I, R: susceptible, intermediate, resistant category
Excerpt: (§1) The disclosed technology, which is referred to as the CytoSPAR BLAST (Bacteria Labeling Antibiotic Susceptibility Test) system, is used to quantitatively assess bacterial minimal inhibitory concentration of antibiotics for in vitro susceptibility testing. Used as an aid in diagnosis for clinicians in determining potential treatment options for patients suspected of having a microbial infection, BLAST is intended to determine susceptibility of microorganisms to the listed antibiotics (or other antimicrobials) according to manufacturer's standards. The system is intended for use with clinical isolates from liquid culture and colonies grown on agar (solid medium) or directly from urine samples. Certain implementations of BLAST determine antibiotic susceptibility for a wide range of bacteria obtained from various types of patient samples, including samples from individuals suffering from urinary tract infections. The disclosed technology includes a high-throughput assay that directly detects bacterial susceptibility to a library of frequently used antibiotics and covers both Gram-negative and Gram-positive bacteria.
(§2) The test incorporates a non-canonical amino acid (ncAA) into newly produced proteins. The incorporated ncAA includes a reactive group which allows a specific modification and detection of the living bacteria. The assay involves bacterial incorporation of the ncAA, a chemical reaction between a reactive group and a fluorophore-tagged ligand, and detection of the newly fluorescent-tagged bacteria using a fluorescent plate reader or functionally similar device. The ncAA is added to bacterial growth media and is incorporated into newly synthesized bacterial proteins. The reactive groups on the ncAA are not naturally found in bacteria and act as a specific reactive group for bacteria undergoing active protein synthesis. […] The entire process is performed in a microtiter filter plate for high-throughput scale-up. Alternatively, a normal 96-well plate can also be used in which case centrifugation is used to wash the plate instead of filtration.
(§3) In an example embodiment, bacterial samples are first diluted and incubated in acclimatization media. After treatment with one or more antimicrobials, the ncAA is added and is taken up by living bacteria during protein biosynthesis in a process called labeling. […] The Click-Chemistry reaction between the alkyne group of the ncAA and the azide group of the fluorophore-tagged ligand requires the presence of copper in the reduced state-copper (I). In other implementations, the functional groups of the click chemistry reaction can be changed so that the ncAA has the azide group and the dye has the alkyne group. […] Other reducing agents may be used in the BLAST assay, for example, aldoses (sugars) including glyceraldehyde, glucose, and ribose to replace sodium ascorbate. Likewise, alternate chelators may be used (e.g., histidine in place of BTTAA). In some implementations, metal-free click chemistry reactions are performed without using copper.
(§4) Using the BLAST system, tests can be performed on isolates or direct urine samples. Isolates may be from urine, blood, or other body fluids. Isolated bacteria may be either Gram-positive or Gram-negative. In an example implementation, living bacterial samples in acclimatization media (Buffer A) are distributed in a microtiter filter plate, wherein certain predetermined wells include antibiotics of interest at different concentrations. These antibiotics are arrayed with increasing concentrations in adjacent wells so that the bacterial response can be measured against each specific concentration. The response is measured quantitatively, and a value that corresponds to the ability of the bacteria to metabolize and grow is measured.

S. aureus ATCC 29213 [3] = test: CytoSPAR BLAST antibiotic susceptibility test; assay type: cell-based; details: for S, I, R: susceptible, intermediate, resistant category; for MIC: Staphylococcus aureus
Excerpt: as §1, §2, §3, §4

E. coli ATCC 25922 [4] = details: CLSI M100-Ed34E, cited from earlier work
P. mirabilis LSI 4698 [5] = test: reference broth microdilution (rBMD); assay type: cell-based; details: Proteus mirabilis, LSI4698
Protocol: Different bacterial strains were tested against different antibiotics and for each pair tested, the BLAST MIC value was compared to the CLSI QC range where available, or to the reference broth microdilution (rBMD) MIC which was determined in parallel with the BLAST assay following the CLSI protocols (see references [8] [9]).

E. coli LSI 770 [6] = test: reference broth microdilution (rBMD); assay type: cell-based
Protocol: (§5) Following optimization of the BLAST assay, two other tests were performed in which 12 antibiotics (covering different classes) and 8 bacterial strains (Gram-positive and Gram-negative) were assayed using the same method as described above. Different bacterial strains were tested against different antibiotics and for each pair tested, the BLAST MIC value was compared to the CLSI QC range where available, or to the reference broth microdilution (rBMD) MIC which was determined in parallel with the BLAST assay following the CLSI protocols (see references [9]).
The inoculated urine cultures were incubated overnight at 35+2° C. Each urine culture was centrifuged, and the sediment used to prepare the BLAST inoculum of 5.0×10^5 CFU/mL to start the assay as described in the protocols section. […] The spiked urine samples were tested in parallel with isolates and the resultant BLAST MIC values were compared. In addition to the BLAST test, all the samples were also tested using the reference broth microdilution (rBMD) method and the MIC values were compared.

K. pneumoniae LSI 4552 [7] = test: CytoSPAR BLAST antibiotic susceptibility test; assay type: cell-based
Excerpt: as §1, §2, §3, §4

P. mirabilis LSI 4933 [8] = test: CytoSPAR BLAST antibiotic susceptibility test; assay type: cell-based
Excerpt: as §1, §2, §3, §4

K. pneumoniae LSI CT1045 [9] = test: CytoSPAR BLAST antibiotic susceptibility test; assay type: cell-based; details: susceptible, intermediate, resistant category
Excerpt: as §1, §2, §3, §4

E. coli LSI 770 [10] = test: CytoSPAR BLAST antibiotic susceptibility test; assay type: cell-based; details: E. coli LSI 770; for MIC: Escherichia coli, LSI770
Excerpt: as §1, §2, §3, §4

P. mirabilis LSI 4698 [11] = test: CytoSPAR BLAST antibiotic susceptibility test; assay type: cell-based
Excerpt: as §1, §2, §3, §4

K. pneumoniae LSI 4552 [12] = test: reference broth microdilution (rBMD); assay type: cell-based; details: Klebsiella pneumoniae, LSI4552
Protocol: as §5

P. mirabilis LSI 4933 [13] = test: reference broth microdilution (rBMD); assay type: cell-based; details: Proteus mirabilis, LSI4933
Protocol: as §5

K. pneumoniae LSI CT1045 [14] = test: reference broth microdilution (rBMD); assay type: cell-based; details: Klebsiella pneumoniae, LSICT1045
Protocol: as §5

[15] = ATCC25922, Table 6, optimized BLAST, cutoff 0.8, read-out: MIC BLAST
[16] = ATCC29213, Table 6, S. aureus ATCC 29213, optimized BLAST, cutoff 0.8, read-out: MIC BLAST
[17] = susceptible, intermediate, resistant category

## CO/N=C(\C(=O)N[C@@H]1C(=O)N2C(C(=O)O)=C(COC(N)=O)CS[C@H]12)c1ccco1 [Cefuroxime, cefuroxime]
S. aureus ATCC 29213 [1]
  MIC CLSI QC Range: 0.5 to 2 µg/mL
E. coli ATCC 25922 [2]; [15]
  MIC: 4 µg/mL (≈ 9.43 µM)
E. coli ATCC 25922 [2]
  S, I, R: Susceptible
S. aureus ATCC 29213 [3]; S. aureus ATCC 29213
  S, I, R: Susceptible
S. aureus ATCC 29213 [3]; [16]
  MIC: 0.25 µg/mL (≈ 0.589 µM)

## CC1=C(C(=O)O)N2C(=O)[C@@H](NC(=O)[C@H](N)c3ccccc3)[C@H]2SC1 [Cephalexin, cephalexin]
S. aureus ATCC 29213 [1]
  MIC CLSI QC Range: 0.25 to 1 µg/mL
E. coli ATCC 25922 [2]; ATCC25922, read-out: MIC BLAST, Table 6, optimized BLAST, cutoff 0.8
  MIC: 16 µg/mL (≈ 46.1 µM)
E. coli ATCC 25922 [2]
  S, I, R: Susceptible
S. aureus ATCC 29213 [3]; S. aureus ATCC 29213
  S, I, R: Susceptible
S. aureus ATCC 29213 [3]; ATCC29213, read-out: MIC BLAST, Table 6, S. aureus ATCC 29213, optimized BLAST, cutoff 0.8
  MIC: 1 µg/mL (≈ 2.88 µM)
E. coli ATCC 25922 [4]
  MIC CLSI QC Range: 1.0 to 4.0 µg/mL

## CO/N=C(\C(=O)N[C@@H]1C(=O)N2C(C(=O)O)=C(CSc3nc(=O)c(=O)[nH]n3C)CS[C@H]12)c1csc(N)n1 [Ceftriaxone, ceftriaxone]
E. coli ATCC 25922 [2]
  S, I, R: Susceptible
S. aureus ATCC 29213 [3]; S. aureus ATCC 29213
  S, I, R: Susceptible
S. aureus ATCC 29213 [3]; [16]
  MIC: 1 µg/mL (≈ 1.8 µM)

## CO[C@@]1(NC(=O)Cc2cccs2)C(=O)N2C(C(=O)O)=C(COC(N)=O)CS[C@@H]21 [Cefoxitin, cefoxitin]
E. coli ATCC 25922 [2]; [15]
  MIC: 4 µg/mL (≈ 9.36 µM)
E. coli ATCC 25922 [2]
  S, I, R: Susceptible
S. aureus ATCC 29213 [3]; S. aureus ATCC 29213
  S, I, R: Susceptible
S. aureus ATCC 29213 [3]; [16]
  MIC: 1 µg/mL (≈ 2.34 µM)

## C[C@H]1c2cccc(O)c2C(=O)C2=C(O)[C@]3(O)C(=O)C(C(N)=O)=C(O)[C@@H](N(C)C)[C@@H]3[C@@H](O)[C@@H]21 [Doxycycline, doxycycline]
P. mirabilis LSI 4698 [5]
  MIC: 32 µg/mL (≈ 72 µM)
E. coli LSI 770 [6]; Escherichia coli, LSI770
  MIC: 64 µg/mL (≈ 144 µM)
E. coli LSI 770 [6]; Table 8, E. coli LSI 770, geometric mean MIC rounded to nearest 2-fold dilution, n = 3
  MIC rBMD: 64 µg/mL (≈ 144 µM)
K. pneumoniae LSI 4552 [7]; Klebsiella pneumoniae, LSI4552, Table 7
  MIC: 1 µg/mL (≈ 2.25 µM)
K. pneumoniae LSI 4552 [7]; [17]
  S, I, R: Susceptible
E. coli ATCC 25922 [2]; ATCC25922, Table 7, read-out: MIC BLAST
  MIC: 0.14 µg/mL (≈ 0.315 µM)
E. coli ATCC 25922 [2]; ATCC25922, Table 8, isolates, 5 × 10^5 CFU/mL, read-out: MIC BLAST Isolates
  MIC: 0.14 µg/mL (≈ 0.315 µM)
E. coli ATCC 25922 [2]; ATCC25922, Table 8, spiked urine sample, 5 × 10^5 CFU/mL, read-out: MIC BLAST Spiked Urine
  MIC: 0.28 µg/mL (≈ 0.63 µM)
E. coli ATCC 25922 [2]
  S, I, R: Susceptible
P. mirabilis LSI 4933 [8]; Proteus mirabilis, LSI4933, Table 7
  MIC: 1.1 µg/mL (≈ 2.48 µM)
P. mirabilis LSI 4933 [8]; [17]
  S, I, R: Susceptible
K. pneumoniae LSI CT1045 [9]
  S, I, R: Resistant
E. coli LSI 770 [10]; [17]
  S, I, R: Resistant
E. coli LSI 770 [10]; Table 7, read-out: MIC BLAST
  MIC: 71 µg/mL (≈ 160 µM)
E. coli LSI 770 [10]; Table 8, isolates, 5 × 10^5 CFU/mL, read-out: MIC BLAST Isolates
  MIC: 71 µg/mL (≈ 160 µM)
E. coli LSI 770 [10]; Table 8, spiked urine sample, 5 × 10^5 CFU/mL, read-out: MIC BLAST Spiked Urine
  MIC: 71 µg/mL (≈ 160 µM)
S. aureus ATCC 29213 [3]; S. aureus ATCC 29213
  S, I, R: Susceptible
S. aureus ATCC 29213 [3]; ATCC29213, S. aureus ATCC 29213, 5×10^6 CFUs/mL, cutoff 0.8, FIGS. 19-21, read-out: BLAST MIC
  MIC: < 0.0625 µg/mL
S. aureus ATCC 29213 [3]; ATCC29213, Table 7, S. aureus ATCC 29213, read-out: MIC BLAST
  MIC: 0.02 µg/mL (≈ 0.045 µM)
S. aureus ATCC 29213 [3]; ATCC29213, Table 8, S. aureus ATCC 29213, isolates, 5 × 10^5 CFU/mL, read-out: MIC BLAST Isolates
  MIC: 0.02 µg/mL (≈ 0.045 µM)
S. aureus ATCC 29213 [3]; ATCC29213, Table 8, S. aureus ATCC 29213, spiked urine sample, 5 × 10^5 CFU/mL, read-out: MIC BLAST Spiked Urine
  MIC: 0.02 µg/mL (≈ 0.045 µM)
P. mirabilis LSI 4698 [11]; Proteus mirabilis, LSI4698, Table 7
  MIC: 4.4 µg/mL (≈ 9.9 µM)
P. mirabilis LSI 4698 [11]; [17]
  S, I, R: Susceptible
K. pneumoniae LSI 4552 [12]
  MIC: 2 µg/mL (≈ 4.5 µM)
P. mirabilis LSI 4933 [13]
  MIC: 4 µg/mL (≈ 9 µM)
K. pneumoniae LSI CT1045 [14]
  MIC: 8 µg/mL (≈ 18 µM)
E. coli ATCC 25922 [4]; listed as doxycycline
  MIC CLSI QC Range: 0.5 to 2 µg/mL
E. coli ATCC 25922 [4]
  MIC CLSI QC Range: 0.5 to 2.0 µg/mL

## C[C@@H](O)[C@H]1C(=O)N2C(C(=O)O)=C(S[C@@H]3CN[C@H](C(=O)N(C)C)C3)[C@H](C)[C@H]12 [Meropenem, meropenem]
E. coli ATCC 25922 [2]
  S, I, R: Susceptible
S. aureus ATCC 29213 [3]; S. aureus ATCC 29213
  S, I, R: Susceptible

## CC1(C)S[C@@H]2[C@H](NC(=O)[C@H](N)c3ccccc3)C(=O)N2[C@H]1C(=O)O [Ampicillin, ampicillin]
S. aureus ATCC 29213 [1]
  MIC CLSI QC Range: 0.5 to 2 µg/mL
E. coli ATCC 25922 [2]; [15]
  MIC: 4 µg/mL (≈ 11.4 µM)
E. coli ATCC 25922 [2]
  S, I, R: Susceptible
S. aureus ATCC 29213 [3]; S. aureus ATCC 29213
  S, I, R: Susceptible
